Assay results from ChEMBL document CHEMBL1201862, “PubChem BioAssay data set” (2004).
Active and inactive are the calls of the source.

Columns and labels:
[1] = target: T1, Short transient receptor potential channel 4 (Mus musculus, UniProt Q9QUQ5); assay: mouse TRPC4 channel inhibitors, dose response, cell-based, HEK293 TRPC4/mu-opioid, Fluo-4 calcium (AID 434942); type: functional;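 further: potency of inhibitors blocking the TRPC4 calcium response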
T1 sequence (Q9QUQ5 whole entry): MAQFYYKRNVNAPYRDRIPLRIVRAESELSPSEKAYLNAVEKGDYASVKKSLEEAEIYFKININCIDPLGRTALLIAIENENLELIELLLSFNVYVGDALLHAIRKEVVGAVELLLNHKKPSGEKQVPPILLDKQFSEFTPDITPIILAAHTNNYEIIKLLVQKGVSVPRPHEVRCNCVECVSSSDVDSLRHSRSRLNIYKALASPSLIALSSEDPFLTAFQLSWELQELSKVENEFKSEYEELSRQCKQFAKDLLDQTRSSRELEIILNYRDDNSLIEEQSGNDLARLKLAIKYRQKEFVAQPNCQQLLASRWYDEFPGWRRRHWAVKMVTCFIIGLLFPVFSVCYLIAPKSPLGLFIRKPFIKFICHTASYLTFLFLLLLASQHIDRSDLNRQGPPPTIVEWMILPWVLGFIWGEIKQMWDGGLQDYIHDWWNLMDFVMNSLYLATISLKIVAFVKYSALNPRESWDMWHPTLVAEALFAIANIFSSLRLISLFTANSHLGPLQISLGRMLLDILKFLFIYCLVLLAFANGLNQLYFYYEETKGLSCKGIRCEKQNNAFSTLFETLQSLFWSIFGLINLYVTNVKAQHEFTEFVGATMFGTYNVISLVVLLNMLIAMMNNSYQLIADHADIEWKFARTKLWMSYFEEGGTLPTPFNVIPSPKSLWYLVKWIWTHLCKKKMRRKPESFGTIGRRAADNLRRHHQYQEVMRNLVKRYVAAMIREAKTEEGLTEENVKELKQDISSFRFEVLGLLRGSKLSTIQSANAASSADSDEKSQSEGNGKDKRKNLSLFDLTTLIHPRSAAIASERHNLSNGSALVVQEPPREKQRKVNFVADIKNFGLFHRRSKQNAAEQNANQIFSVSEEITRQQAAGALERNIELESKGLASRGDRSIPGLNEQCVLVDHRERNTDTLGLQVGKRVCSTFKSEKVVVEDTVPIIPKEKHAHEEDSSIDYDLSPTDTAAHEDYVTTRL

[2] = tested on: Vero; assay: host cell cytotoxicity of antiviral hits, dose response, cytotoxicity control for West Nile virus antiviral project, secondary assay (AID 1650); type: functional; details: Chlorocebus sabaeus
[3] = tested on: Streptococcus sp. 'group A'; assay: growth inhibition of control SK(-) GAS strain, dose response, counter-screen for streptokinase expression inhibitor project, luminescence, kanamycin, BacTiterGlo, confirmation (AID 1900); type: functional, organism-based; details: Streptococcus sp. 'group A'
[4] = cells; type: functional, cell-based
[5] = inhibitors of intracellular T. cruzi replication, confirmation, NIH3T3 host cells, beta-gal luminescence (AID 2044); type: functional, cell-based;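 further: intracellular parasites grown in NIH/3T3 mouse fibroblasts as host cells; luminescent beta-galactosidase reporter signal from transgenic T. cruzi replicating inside host cells; inhibitors lower the luminescence signal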
[6] = microbe, parasite or virus in culture; type: functional; details: Mycobacterium tuberculosis
[7] = cells; type: functional, cell-based; remark: listed apart in the source
[8] = cytotoxicity toward NIH3T3 fibroblasts, dose response, counter-screen, cell-based, ATP luminescence, mouse fibroblasts (AID 2010); type: functional;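 further: cells exposed to compound for about 90 hours before reading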
[9] = tested on: Streptococcus; assay: Group A Streptococcus viability loss, dose response, counter-screen for streptokinase expression inhibitor project, luminescence, BacTiterGlo (AID 1915); type: functional, organism-based; details: Streptococcus;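 further: potency for reduction of bacterial viability or growth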
[10] = target: T2, X-box-binding protein 1 (Homo sapiens, UniProt P17861); type: functional, Cricetulus griseus;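 further: confirmatory dose-response counter-screen serving a CHOP assay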
T2 sequence (P17861 whole entry): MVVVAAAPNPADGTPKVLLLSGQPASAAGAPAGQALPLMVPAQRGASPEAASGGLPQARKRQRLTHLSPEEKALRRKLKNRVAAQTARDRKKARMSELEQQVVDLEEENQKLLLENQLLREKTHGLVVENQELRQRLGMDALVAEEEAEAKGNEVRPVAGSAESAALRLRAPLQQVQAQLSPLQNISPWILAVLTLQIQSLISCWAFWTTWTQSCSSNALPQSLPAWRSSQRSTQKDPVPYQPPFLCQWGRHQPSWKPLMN

[11] = intracellular Trypanosoma cruzi inhibitors in host cells – cell-based, plate reader, cherry-pick samples, set 3, dose response (AID 651818); type: functional;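 further: compounds incubated with infected cells for about four days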
[12] = target: T3, Leucine aminopeptidase (Plasmodium falciparum 3D7, UniProt Q8IL11); assay: P. falciparum M17LAP inhibitors, primary screen, biochemical, fluorogenic H-Leu-NHMec substrate, 1536-well (AID 1619); type: functional
T3 sequence (Q8IL11 whole entry): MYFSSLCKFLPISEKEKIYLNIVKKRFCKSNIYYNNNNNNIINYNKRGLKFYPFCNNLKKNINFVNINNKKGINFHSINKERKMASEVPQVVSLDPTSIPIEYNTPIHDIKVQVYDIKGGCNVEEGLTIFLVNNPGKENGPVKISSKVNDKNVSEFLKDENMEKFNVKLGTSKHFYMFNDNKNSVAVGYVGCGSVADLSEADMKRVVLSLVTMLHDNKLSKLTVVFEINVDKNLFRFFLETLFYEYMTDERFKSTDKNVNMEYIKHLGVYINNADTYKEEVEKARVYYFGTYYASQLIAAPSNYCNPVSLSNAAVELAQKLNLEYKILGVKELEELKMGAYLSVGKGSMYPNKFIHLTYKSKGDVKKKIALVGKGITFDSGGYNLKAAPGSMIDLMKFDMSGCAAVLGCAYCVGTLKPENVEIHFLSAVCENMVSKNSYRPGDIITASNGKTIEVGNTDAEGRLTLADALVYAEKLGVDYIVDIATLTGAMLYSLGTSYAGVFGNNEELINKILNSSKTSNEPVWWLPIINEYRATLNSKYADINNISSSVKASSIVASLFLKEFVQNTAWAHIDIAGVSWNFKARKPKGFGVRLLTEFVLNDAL

[13] = target: T4, Aspartyl aminopeptidase (Plasmodium falciparum 3D7, UniProt Q8I2J3); assay: Counterscreen for inhibitors of M1 and M17 aminopeptidases: QFRET-based biochemical high throughput dose response assay for inhibitors of the Plasmodium falciparum M18 Aspartyl Aminopeptidase (PFM18AAP). [Related PubChem assays: 1619 (Screening assay (M17LAP inhibitors).), 1445 (Screening assay (M1AAP inhibitors).)]
T4 sequence (Q8I2J3 whole entry): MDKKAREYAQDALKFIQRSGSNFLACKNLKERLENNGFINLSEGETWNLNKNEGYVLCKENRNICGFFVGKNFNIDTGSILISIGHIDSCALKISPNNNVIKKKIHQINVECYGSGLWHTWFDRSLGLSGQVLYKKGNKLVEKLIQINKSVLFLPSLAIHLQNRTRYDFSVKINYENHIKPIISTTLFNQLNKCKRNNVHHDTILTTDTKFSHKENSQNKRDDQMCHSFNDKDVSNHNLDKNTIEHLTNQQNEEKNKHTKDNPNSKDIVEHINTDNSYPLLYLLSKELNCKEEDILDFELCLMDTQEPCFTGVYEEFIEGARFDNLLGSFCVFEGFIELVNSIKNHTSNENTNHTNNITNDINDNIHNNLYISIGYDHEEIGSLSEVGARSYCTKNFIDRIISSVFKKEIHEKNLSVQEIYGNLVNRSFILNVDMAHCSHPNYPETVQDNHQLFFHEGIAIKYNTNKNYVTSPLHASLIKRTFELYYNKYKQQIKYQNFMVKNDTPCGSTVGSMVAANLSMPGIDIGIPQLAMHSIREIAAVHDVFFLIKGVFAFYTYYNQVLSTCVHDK

[14] = target: Procathepsin L (Homo sapiens, UniProt P07711); assay: cathepsin L inhibitors, dose response, counter-screen for M1/M17 aminopeptidase inhibitor project, biochemical, QFRET, 1536-well (AID 2214)
Chain of Procathepsin L (P07711 whole entry): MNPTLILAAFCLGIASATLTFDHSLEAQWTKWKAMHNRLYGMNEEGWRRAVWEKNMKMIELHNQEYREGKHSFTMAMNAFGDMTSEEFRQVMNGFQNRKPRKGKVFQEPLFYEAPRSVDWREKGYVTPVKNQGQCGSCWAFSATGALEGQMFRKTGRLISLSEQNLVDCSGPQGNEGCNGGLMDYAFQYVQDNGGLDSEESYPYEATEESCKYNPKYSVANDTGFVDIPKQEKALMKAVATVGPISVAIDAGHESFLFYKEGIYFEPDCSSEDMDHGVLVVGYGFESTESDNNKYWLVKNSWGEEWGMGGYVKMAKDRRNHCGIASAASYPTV

Clc1ccc(COc2ccccc2CNCc2cccnc2)cc1
EC50 [1]: 2.99 µM (active)

O=C(Nc1ccccc1-c1nc2ccccc2s1)c1ccco1
CC50 [2]: 12.8 µM (active)

Cc1cccc(C)c1Nc1c(-c2ccccn2)nc2ccccn12
EC50 [3]: 2.52 µM (active) | EC50 [4]: 92.4 µM (active) | CC50 [2]: 4.16 µM (active) | EC50 [5]: 1.45 µM (active) | CC50 [6]: 3.91 µM (active) | EC50 [7]: > 350 µM (not active) | EC50 [8]: 6.81 µM (active) | EC50 [9]: 6.43 µM (active)

Oc1ccc(Br)cc1-c1nc2cnccn2c1NC1CCCCC1
Absolute IC50 (XBP1) [10]: 10 µM

C[C@H]1CN([C@@H](C)CO)C(=O)c2cc(NS(=O)(=O)c3ccc(F)cc3)ccc2O[C@@H]1CN(C)Cc1ccc(Oc2ccccc2)cc1
AC50 [11]: 3.72 µM (active)

CCC(C)NCCOCCOc1ccccc1-c1ccccc1 (configuration not stated)
EC50 [1]: 1.19 µM (active)

CCCNCc1cc(Br)ccc1OCC(=O)NCCc1ccccc1
EC50 [1]: 0.841 µM (active)

CCc1cc2ccccc2nc1SCC(=O)Nc1cc(OC)c(OC)cc1C(=O)O
IC50 [12]: < 1 µM (active) | IC50 [13]: > 73.5 µM (not active) | IC50 [14]: > 59.6 µM (not active)
